Data: US20150126467A1, “USE OF ALGINATE OLIGOMERS TO ENHANCE THE EFFECTS OF ANTIFUNGAL AGENTS” (AlgiIPharma AS, priority 2011, published 2015)
Values after ≈ are worked out from the molar mass of the structure shown. Where two headings read alike, the source gives them in different places.

Key:
[1] = system: C. tropicalis 12 (vaginal); test: Standard MIC testing in RPMI medium (Example 3); assay type: cell-based; details: Candida tropicalis, 48 h, read-out: Minimum Inhibitory Concentration (MIC)
Protocol: (§4) Following retrieval from −80° C. storage, fungal colonies were grown on blood agar with 5% sheep blood and were used to inoculate tryptone soya broth (TSB) for overnight growth. […] Fungal cultures at 0.5 McFarland standard were diluted ten-fold in RPMI medium and 5 μl added to the media containing wells of the microtiter plates. Plates were wrapped in parafilm and incubated at 34° C. for 48 hours. MIC values were determined as the lowest concentration at which there was no visible growth.

[2] = system: C. parapsillosis ATCC 22019T; test: Standard MIC testing in RPMI medium (Example 3); assay type: cell-based, Candida parapsilosis; details: Lodderomyces parapsilosis, ATCC2019, 48 h, C. Parapsillosis ATCC 2019^T, read-out: Minimum Inhibitory Concentration (MIC)
Protocol: as §4

[3] = system: C. lusitaniae 994/01(2) (candidosis); test: Standard MIC testing in RPMI medium (Example 3); assay type: cell-based, Candida lusitaniae; details: 48 h
Protocol: as §4

[4] = system: C. tropicalis 519468 (urinary); test: Standard MIC testing in RPMI medium (Example 3); assay type: cell-based; details: Candida tropicalis, 48 h, read-out: Minimum Inhibitory Concentration (MIC)
Protocol: (§5) The Minimum Inhibitory Concentration assay used in this Example was based on Jorgensen et al. (Manual of Clinical Microbiology, 7th ed. Washington, D.C: American Society for Microbiology, 1999; 1526-43). Following retrieval from −80° C. storage, fungal colonies were grown on blood agar with 5% sheep blood and were used to inoculate tryptone soya broth (TSB) for overnight growth. […] Fungal cultures at 0.5 McFarland standard were diluted ten-fold in RPMI medium and 5 μl added to the media containing wells of the microtiter plates. Plates were wrapped in parafilm and incubated at 34° C. for 48 hours. MIC values were determined as the lowest concentration at which there was no visible growth.

[5] = system: C. krusei 249/03(2) (ulceration); test: Standard MIC testing in RPMI medium (Example 3); assay type: cell-based, Candida krusei; details: 48 h
Protocol: as §4

[6] = system: C. tropicalis 250/03 (candidosis); test: Standard MIC testing in RPMI medium (Example 3); assay type: cell-based; details: Candida tropicalis, 48 h, read-out: Minimum Inhibitory Concentration (MIC)
Protocol: as §5

[7] = system: C. krusei 141/03 (candidosis); test: Standard MIC testing in RPMI medium (Example 3); assay type: cell-based, Candida krusei; details: Pichia kudriavzevii, 48 h, read-out: Minimum Inhibitory Concentration (MIC)
Protocol: as §4

[8] = system: Candida albicans; test: Robotic MIC assay with asthma/COPD medicaments (Example 5); assay type: cell-based; details: Mueller-Hinton broth; for MIC values: 24 hours
Protocol: (§1) A robotic MIC Assay was performed as follows. OligoG CF-5/20 were dissolved in medium (Mueller-Hinton broth or M19 broth depending on experiment) to 1.25 times of the desired assay concentrations (2, 6 and 10%). The antifungal agents under test were dissolved in medium without OligoG CF-5/20 and in medium with OligoG CF-5/20 at a concentration of 1.25 times the highest desired assay concentrations. For experiments where the effect of adding different concentrations of Na^+ was investigated, NaCl was dissolved in medium to the desired concentrations (10, 30 and 50 mM).
(§2) Two-fold serial dilutions of antifungal agents were made in medium with different concentrations of OligoG CF-5/20, and the solutions were placed in four parallel wells in Nunc 384-well micro plates (30 μl per well in Nunc 242757 microplates). A group of 8 wells with no addition of antifungal agents for each OligoG CF-5/20 concentration was included on each microplate as growth reference. To each well in the 384-well assay plates was added 7.5 μl of medium inoculated with a frozen stock culture of Candida albicans (strain CCUG 39343).
(§3) The micro plates were placed in plastic bags and incubated without shaking at 34° C. The optical density at 600 nm in the microwells was measured after approximately 13, 18, 24 and 34 hours of incubation, and the relative growth yield in each well was calculated based on the growth in the reference groups.
The robotic assay described in Example 1 was employed in this Example. […] The concentration utilized for the different components were based on information from Manocha et al. (2006).
In this assay only Mueller-Hinton broth was used since this is the medium specified for standardized MIC assays (Jorgensen et al., 1999).

[9] = system: Candida albicans, CCUG 39343; test: Robotic MIC assay (Example 1); assay type: cell-based; details: for Minimum Inhibitory Concentration (MIC): 24 hours; for reduction in MIC values: comparing 0 and 10% G-block
Protocol: as §1, §2
The frozen stock culture was prepared by growing the Candida strain at 34° C. for 48 h on YM-agar. 1-3 colonies from the plates were grown in 6 ml YM-broth at 34° C. for 14 h before freezing in 6% glycerol at −80° C. Each batch of frozen stock culture was then characterized in separate growth experiments using Mueller-Hinton or M19 broth to determine the minimum amount of inoculum giving satisfactory growth after 48 h under the conditions relevant for the MIC assay. This inoculation procedure is used in order to reduce day to day variation in bioassays.
as §3

OC(Cn1cncn1)(Cn1cncn1)c1ccc(F)cc1F [Fluconazole, fluconazole]
MIC ([1]; 0% OligoG): 128 µg/mL (≈ 418 µM)
MIC ([1]; 2% OligoG): 128 µg/mL (≈ 418 µM)
MIC ([1]; 6% OligoG): 4 µg/mL (≈ 13.1 µM)
MIC ([1]; 10% OligoG): 1 µg/mL (≈ 3.27 µM)
MIC ([2]; 0% OligoG): 2 µg/mL (≈ 6.53 µM)
MIC ([2]; 2% OligoG): 2 µg/mL (≈ 6.53 µM)
MIC ([2]; 6% OligoG): 2 µg/mL (≈ 6.53 µM)
MIC ([2]; 10% OligoG): 1 µg/mL (≈ 3.27 µM)
Minimum Inhibitory Concentration (MIC) ([3]; 0% OligoG): 2 µg/mL
Minimum Inhibitory Concentration (MIC) ([3]; 6% OligoG): 2 µg/mL
Minimum Inhibitory Concentration (MIC) ([3]; 10% OligoG): 2 µg/mL
MIC ([3]; Clavispora lusitaniae, 2% OligoG, read-out: Minimum Inhibitory Concentration (MIC)): 2 µg/mL (≈ 6.53 µM)
MIC ([4]; 6% OligoG): 2 µg/mL (≈ 6.53 µM)
MIC ([4]; 10% OligoG): 1 µg/mL (≈ 3.27 µM)
Minimum Inhibitory Concentration (MIC) ([5]; 0% OligoG): 4 µg/mL
Minimum Inhibitory Concentration (MIC) ([5]; 6% OligoG): 4 µg/mL
Minimum Inhibitory Concentration (MIC) ([5]; 10% OligoG): 4 µg/mL
MIC ([5]; Pichia kudriavzevii, 2% OligoG, read-out: Minimum Inhibitory Concentration (MIC)): 4 µg/mL (≈ 13.1 µM)
MIC ([6]; 0% OligoG): 4 µg/mL (≈ 13.1 µM)
MIC ([6]; 2% OligoG): 4 µg/mL (≈ 13.1 µM)
MIC ([6]; 6% OligoG): 4 µg/mL (≈ 13.1 µM)
MIC ([6]; 10% OligoG): 2 µg/mL (≈ 6.53 µM)
MIC ([7]; 0% OligoG): 128 µg/mL (≈ 418 µM)
MIC ([7]; 2% OligoG): 64 µg/mL (≈ 209 µM)
MIC ([7]; 6% OligoG): 64 µg/mL (≈ 209 µM)
MIC ([7]; 10% OligoG): 32 µg/mL (≈ 104 µM)

C[C@@H]1[C@H](O)[C@@H](C)/C=C/C=C/CC/C=C/C=C/C=C/C=C/C(O[C@H]2O[C@H](C)[C@@H](O)[C@H](N)[C@@H]2O)CC2O[C@](O)(CC(O)C(O)CCC(O)CC(O)CC(O)CC(=O)O[C@H]1C)CC(O)C2C(=O)O (stereo partly shown) [Nystatin, nystatin]
reduction in MIC values ([8]; addition of 10% OligoG CF-5/20 compared to without OligoG CF-5/20): 4 ×
MIC values ([8]; no medicament added, G-block 0%): 2 µg/mL (≈ 2.16 µM)
MIC values ([8]; no medicament added, G-block 2%): 2 µg/mL (≈ 2.16 µM)
MIC values ([8]; no medicament added, G-block 6%): 1 µg/mL (≈ 1.08 µM)
MIC values ([8]; no medicament added, G-block 10%): 0.5 µg/mL (≈ 0.54 µM)
MIC values ([8]; with Budesonide 0.01 mM, G-block 0%): 4 µg/mL (≈ 4.32 µM)
MIC values ([8]; with Budesonide 0.01 mM, G-block 2%): 4 µg/mL (≈ 4.32 µM)
MIC values ([8]; with Budesonide 0.01 mM, G-block 6%): 2 µg/mL (≈ 2.16 µM)
MIC values ([8]; with Budesonide 0.01 mM, G-block 10%): 1 µg/mL (≈ 1.08 µM)
MIC values ([8]; with Formoterol 0.5 mM (2% DMSO), G-block 0%): 2 µg/mL (≈ 2.16 µM)
MIC values ([8]; with Formoterol 0.5 mM (2% DMSO), G-block 2%): 2 µg/mL (≈ 2.16 µM)
MIC values ([8]; with Formoterol 0.5 mM (2% DMSO), G-block 6%): 1 µg/mL (≈ 1.08 µM)
MIC values ([8]; with Formoterol 0.5 mM (2% DMSO), G-block 10%): 0.5 µg/mL (≈ 0.54 µM)
MIC values ([8]; with Ipratropium bromide 0.01 mM, G-block 0%): 4 µg/mL (≈ 4.32 µM)
MIC values ([8]; with Ipratropium bromide 0.01 mM, G-block 2%): 2 µg/mL (≈ 2.16 µM)
MIC values ([8]; with Ipratropium bromide 0.01 mM, G-block 6%): 1 µg/mL (≈ 1.08 µM)
MIC values ([8]; with Ipratropium bromide 0.01 mM, G-block 10%): 0.25 µg/mL (≈ 0.27 µM)
MIC values ([8]; with Ipratropium bromide 1 mM, G-block 0%): 4 µg/mL (≈ 4.32 µM)
MIC values ([8]; with Ipratropium bromide 1 mM, G-block 2%): 2 µg/mL (≈ 2.16 µM)
MIC values ([8]; with Ipratropium bromide 1 mM, G-block 6%): 0.5 µg/mL (≈ 0.54 µM)
MIC values ([8]; with Ipratropium bromide 1 mM, G-block 10%): 0.25 µg/mL (≈ 0.27 µM)
MIC values ([8]; with Salbutamol 0.01 mM, G-block 0%): 4 µg/mL (≈ 4.32 µM)
MIC values ([8]; with Salbutamol 0.01 mM, G-block 2%): 2 µg/mL (≈ 2.16 µM)
MIC values ([8]; with Salbutamol 0.01 mM, G-block 6%): 1 µg/mL (≈ 1.08 µM)
MIC values ([8]; with Salbutamol 0.01 mM, G-block 10%): 0.25 µg/mL (≈ 0.27 µM)
MIC values ([8]; with Salbutamol 1 mM, G-block 0%): 2 µg/mL (≈ 2.16 µM)
MIC values ([8]; with Salbutamol 1 mM, G-block 2%): 2 µg/mL (≈ 2.16 µM)
MIC values ([8]; with Salbutamol 1 mM, G-block 6%): 1 µg/mL (≈ 1.08 µM)
MIC values ([8]; with Salbutamol 1 mM, G-block 10%): 0.25 µg/mL (≈ 0.27 µM)
Minimum Inhibitory Concentration (MIC) ([9]; M19, NaCl 0 mM): 6.4 µg/mL
Minimum Inhibitory Concentration (MIC) ([9]; M19, NaCl 30 mM): 3.2 µg/mL
Minimum Inhibitory Concentration (MIC) ([9]; M19, NaCl 50 mM): 1.6 µg/mL
Minimum Inhibitory Concentration (MIC) ([9]; M19, OligoG CF 5/20 0%): 6.4 µg/mL
Minimum Inhibitory Concentration (MIC) ([9]; M19, OligoG CF 5/20 2%): 1.6 µg/mL
Minimum Inhibitory Concentration (MIC) ([9]; M19, OligoG CF 5/20 6%): 0.8 µg/mL
Minimum Inhibitory Concentration (MIC) ([9]; M19, OligoG CF 5/20 10%): 0.4 µg/mL
reduction in MIC values ([9]; M19): 16 ×
Minimum Inhibitory Concentration (MIC) ([9]; Mueller-Hinton, NaCl 0 mM): 6.4 µg/mL
Minimum Inhibitory Concentration (MIC) ([9]; Mueller-Hinton, NaCl 10 mM): 6.4 µg/mL
Minimum Inhibitory Concentration (MIC) ([9]; Mueller-Hinton, NaCl 30 mM): 6.4 µg/mL
Minimum Inhibitory Concentration (MIC) ([9]; Mueller-Hinton, NaCl 50 mM): 6.4 µg/mL
Minimum Inhibitory Concentration (MIC) ([9]; Mueller-Hinton, OligoG CF 5/20 0%): 3.2 µg/mL
Minimum Inhibitory Concentration (MIC) ([9]; Mueller-Hinton, OligoG CF 5/20 2%): 3.2 µg/mL
Minimum Inhibitory Concentration (MIC) ([9]; Mueller-Hinton, OligoG CF 5/20 6%): 0.8 µg/mL
Minimum Inhibitory Concentration (MIC) ([9]; Mueller-Hinton, OligoG CF 5/20 10%): 0.4 µg/mL
reduction in MIC values ([9]; Mueller-Hinton): 8 ×
effect of addition of OligoG CF-5/20 on MIC values ([9]; both media tested (M19, Mueller-Hinton)): reduction in MIC values
